This is an account of results in patent US12662489B2 (Sitryx Therapeutics Limited, priority 2023, dated 2026).

The structures appear in SMILES notation. pIC50: −log10 of the molar value.

One may read the pIC50 as the IC50 on a negative log10 scale, so that one unit is a factor of ten.

Assay [1] deals with T1, MTHFD1 recombinant human enzyme (Homo sapiens, UniProt P11586).
T1 sequence (P11586 2-291 limits assumed): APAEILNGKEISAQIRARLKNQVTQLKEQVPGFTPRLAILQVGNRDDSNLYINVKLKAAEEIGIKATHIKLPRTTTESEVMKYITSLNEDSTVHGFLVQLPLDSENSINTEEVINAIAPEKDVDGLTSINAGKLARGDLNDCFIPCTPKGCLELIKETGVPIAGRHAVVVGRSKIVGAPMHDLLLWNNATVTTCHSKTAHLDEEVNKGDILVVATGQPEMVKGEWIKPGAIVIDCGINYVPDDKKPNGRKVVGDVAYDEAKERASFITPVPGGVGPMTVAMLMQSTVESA
The assay can be described thus: MTHFD1 inhibition assay (NAD(P)H-Glo luminescence). Particulars: MTHFD1 IC50, recombinant human enzyme 200 nM, NADP, band.

The target in assay [2] is T2, MTHFD2 recombinant human enzyme (Homo sapiens, UniProt P13995).
T2 sequence (P13995 36-350): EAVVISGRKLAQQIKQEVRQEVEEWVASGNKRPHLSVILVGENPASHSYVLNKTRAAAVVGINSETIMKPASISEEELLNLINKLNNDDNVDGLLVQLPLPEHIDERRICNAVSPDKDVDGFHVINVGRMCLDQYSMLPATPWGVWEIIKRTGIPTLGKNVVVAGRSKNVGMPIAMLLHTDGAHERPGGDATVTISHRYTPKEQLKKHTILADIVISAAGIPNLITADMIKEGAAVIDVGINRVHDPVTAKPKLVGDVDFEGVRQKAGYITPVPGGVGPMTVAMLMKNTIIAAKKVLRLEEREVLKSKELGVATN
Briefly: MTHFD2 inhibition assay (NAD(P)H-Glo luminescence). Particulars: for MTHFD1/MTHFD2 IC50 ratio: selectivity of MTHFD2 inhibition over MTHFD1, band.

For the molecule `COC[C@H]1CN(c2cc(Cl)c3c4c(c(=O)oc3c2C)CN(C(=O)c2cc(N(C)C)c(C(=O)NS(=O)(=O)N3CCCC5(COC5)C3)cc2F)CC4)CCN1C` [Example 272, (R)-N-((2-oxa-6-azaspiro[3.5]nonan-6-yl)sulfonyl)-4-(10-chloro-8-(3-(methoxymethyl)-4-methylpiperazin-1-yl)-7-methyl-5-oxo-1,3,4,5-tetrahydro-2H-chromeno[3,4-c]pyridine-3-carbonyl)-2-(dimethylamino)-5-fluorobenzamide], the pIC50 was 6.00 to 7.00 in assay [1] and 7.00 to 8.00 in assay [2]. The “MTHFD1/MTHFD2 IC50 ratio” value in assay [2] is recorded as “H (>9.0 to 30)”.
In the same order, the values of `COC[C@H]1CN(c2cc(C)c3c4c(c(=O)oc3c2C)CN(C(=O)c2ccc(C(=O)NS(=O)(=O)N3CCCC3)c(N3CC5CC5C3)c2F)CC4)CCN1C` (stereo partly drawn) [Example 95, 2-(3-azabicyclo[3.1.0]hexan-3-yl)-3-fluoro-4-(8-((R)-3-(methoxymethyl)-4-methylpiperazin-1-yl)-7,10-dimethyl-5-oxo-1,3,4,5-tetrahydro-2H-chromeno[3,4-c]pyridine-3-carbonyl)-N-(pyrrolidin-1-ylsulfonyl)benzamide] are 6.00 to 7.00, 6.00 to 7.00 and “F (<3)”.
For the molecule `COC[C@H]1CN(c2ccc3c4c(c(=O)oc3c2C)CN(C(=O)c2ccc(C(=O)NS(=O)(=O)N3CCCC3)c(OC3CCC3)c2F)CC4)CCN1C1CC1` [Example 173, (R)-2-cyclobutoxy-4-(8-(4-cyclopropyl-3-(methoxymethyl)piperazin-1-yl)-7-methyl-5-oxo-1,3,4,5-tetrahydro-2H-chromeno[3,4-c]pyridine-3-carbonyl)-3-fluoro-N-(pyrrolidin-1-ylsulfonyl)benzamide], the pIC50 in assay [1] is 5.30 to 6.00. Also, in assay [2], the pIC50 is 5.30 to 6.00 and the “MTHFD1/MTHFD2 IC50 ratio” value is “F (<3)”.
Regarding `COC[C@H]1CN(c2cc(C)c3c4c(c(=O)oc3c2C)CN(C(=O)c2cc(N3CCCC3)c(C(=O)NS(=O)(=O)C3(C)CC3)cc2F)CC4)CCN1C` [Example 142, (R)-5-fluoro-4-(8-(3-(methoxymethyl)-4-methylpiperazin-1-yl)-7,10-dimethyl-5-oxo-1,3,4,5-tetrahydro-2H-chromeno[3,4-c]pyridine-3-carbonyl)-N-((1-methylcyclopropyl)sulfonyl)-2-(pyrrolidin-1-yl)benzamide], the pIC50 in assay [1] is 7.00 to 8.00. In assay [2], the pIC50 is 7.00 to 8.00 and the “MTHFD1/MTHFD2 IC50 ratio” value is given as “G (^ 3 to 9.0)”.
Regarding `COC[C@H]1CN(c2cc(C)c3c4c(c(=O)oc3c2C)CN(C(=O)c2ccc(C(=O)NS(=O)(=O)N(C)C)c(N3CCC[C@@H]3C)c2)CC4)CCN1C` [Example 103, N-(N,N-dimethylsulfamoyl)-4-(8-((R)-3-(methoxymethyl)-4-methylpiperazin-1-yl)-7,10-dimethyl-5-oxo-1,3,4,5-tetrahydro-2H-chromeno[3,4-c]pyridine-3-carbonyl)-2-((S)-2-methylpyrrolidin-1-yl)benzamide], in assay [1], the pIC50 was 8.00 to 9.00. Also, in assay [2], the pIC50 is 8.00 to 9.00 and the “MTHFD1/MTHFD2 IC50 ratio” value is reported as “G (^ 3 to 9.0)”.
Consider `COC[C@H]1CN(c2ccc3c4c(c(=O)oc3c2Cl)CN(C(=O)c2ccc(C(=O)NS(=O)(=O)N(C)C)c(OC3CCC3)c2F)CC4)CCN1C` [Example 52, (R)-4-(7-chloro-8-(3-(methoxymethyl)-4-methylpiperazin-1-yl)-5-oxo-1,3,4,5-tetrahydro-2H-chromeno[3,4-c]pyridine-3-carbonyl)-2-cyclobutoxy-N-(N,N-dimethylsulfamoyl)-3-fluorobenzamide], for which the negative logarithm of the IC50 (pIC50) in assay [1] and in assay [2] was 8.00 to 9.00 each time.
Regarding `[2H]C([2H])([2H])Oc1c(C(=O)NS(=O)(=O)N2C3CCC2CC3)ccc(C(=O)N2CCc3c(c(=O)oc4c(C)c(N5CCN(C)[C@@H](COC)C5)cc(C)c34)C2)c1F` [Example 252, (R)-N-((7-azabicyclo[2.2.1]heptan-7-yl)sulfonyl)-3-fluoro-2-(methoxy-d3)-4-(8-(3-(methoxymethyl)-4-methylpiperazin-1-yl)-7,10-dimethyl-5-oxo-1,3,4,5-tetrahydro-2H-chromeno[3,4-c]pyridine-3-carbonyl)benzamide], the pIC50 in assay [1] was 6.00 to 7.00. In assay [2], the pIC50 is 8.00 to 9.00 and the “MTHFD1/MTHFD2 IC50 ratio” value is “J (>30)”.
In the same order, the values of `CCOc1c(C(=O)NS(=O)(=O)N2C[C@H]3CCC[C@H]3C2)ccc(C(=O)N2CCc3c(c(=O)oc4c(C)c(N5CCN(C)[C@@H](COC)C5)cc(C)c34)C2)c1F` [Example 232] are 7.00 to 8.00, 7.00 to 8.00 and “F (<3)”.
For `COC[C@H]1CN(c2cc(C)c3c4c(c(=O)oc3c2C)CN(C(=O)c2ccc(C(=O)NS(=O)(=O)N(C)C)c(N3CCC(F)(F)C3)c2)CC4)CCN1C` [Example 82, (R)-2-(3,3-difluoropyrrolidin-1-yl)-N-(N,N-dimethylsulfamoyl)-4-(8-(3-(methoxymethyl)-4-methylpiperazin-1-yl)-7,10-dimethyl-5-oxo-1,3,4,5-tetrahydro-2H-chromeno[3,4-c]pyridine-3-carbonyl)benzamide], the pIC50 in assay [1] is 7.00 to 8.00; in assay [2], 8.00 to 9.00.
For `COC[C@H]1CN(c2cc(Cl)c3c4c(c(=O)oc3c2C)CN(C(=O)c2ccc(C(=O)NS(=O)(=O)N3CCC[C@@H]3COC)c(OC)c2)CC4)CCN1C` [Example 288, 4-(10-chloro-8-((R)-3-(methoxymethyl)-4-methylpiperazin-1-yl)-7-methyl-5-oxo-1,3,4,5-tetrahydro-2H-chromeno[3,4-c]pyridine-3-carbonyl)-2-methoxy-N-(((R)-2-(methoxymethyl)pyrrolidin-1-yl)sulfonyl)benzamide], the pIC50 in assay [1] is 5.30 to 6.00. In assay [2], the pIC50 is 7.00 to 8.00 and the “MTHFD1/MTHFD2 IC50 ratio” value is “J (>30)”.
With `COC[C@H]1CN(c2cc(C)c3c4c(c(=O)oc3c2C)CN(C(=O)c2ccc(C(=O)NS(=O)(=O)N(C)C)c(OC(C)C)c2F)CC4)CCN1C` [Example 148, (R)-N-(N,N-dimethylsulfamoyl)-3-fluoro-2-isopropoxy-4-(8-(3-(methoxymethyl)-4-methylpiperazin-1-yl)-7,10-dimethyl-5-oxo-1,3,4,5-tetrahydro-2H-chromeno[3,4-c]pyridine-3-carbonyl)benzamide], the negative logarithm of the IC50 (pIC50) in assay [1] was 7.00 to 8.00; in assay [2], 8.00 to 9.00. For the same molecule, the “MTHFD1/MTHFD2 IC50 ratio” value in assay [2] is on record as “G (^ 3 to 9.0)”.
In the same order, the values of `COC[C@H]1CN(c2ccc3c4c(c(=O)oc3c2C)CN(C(=O)c2ccc(C(=O)NS(=O)(=O)C3(C)CC3)c(OC3CCCC3)c2)CC4)CCN1C` [Example 8, (R)-2-(cyclopentyloxy)-4-(8-(3-(methoxymethyl)-4-methylpiperazin-1-yl)-7-methyl-5-oxo-1,3,4,5-tetrahydro-2H-chromeno[3,4-c]pyridine-3-carbonyl)-N-((1-methylcyclopropyl)sulfonyl)benzamide] are 7.00 to 8.00, 7.00 to 8.00 and “F (<3)”.
In the same order, the values of `COC[C@H]1CN(c2cc(C)c3c4c(c(=O)oc3c2C)CN(C(=O)c2ccc(C(=O)NS(=O)(=O)N(C)C)c(OC3C[C@@H]5C[C@@H]5C3)c2)CC4)CCN1C` (mixture of isomers) [Example 108, 2-(bicyclo[3.1.0]hexan-3-yloxy)-N-(N,N-dimethylsulfamoyl)-4-(8-((R)-3-(methoxymethyl)-4-methylpiperazin-1-yl)-7,10-dimethyl-5-oxo-1,3,4,5-tetrahydro-2H-chromeno[3,4-c]pyridine-3-carbonyl)benzamide] are 7.00 to 8.00, 7.00 to 8.00 and “F (<3)”.
Regarding `COC[C@H]1CN(c2cc(C)c3c4c(c(=O)oc3c2C)CN(C(=O)c2ccc(C(=O)NS(=O)(=O)N(C)C)c(N3CCC(C)(C)C3)c2)CC4)CCN1C` [Example 88, (R)-2-(3,3-dimethylpyrrolidin-1-yl)-N-(N,N-dimethylsulfamoyl)-4-(8-(3-(methoxymethyl)-4-methylpiperazin-1-yl)-7,10-dimethyl-5-oxo-1,3,4,5-tetrahydro-2H-chromeno[3,4-c]pyridine-3-carbonyl)benzamide], the negative logarithm of the IC50 (pIC50) in assay [1] was 8.00 to 9.00. Also, in assay [2], the pIC50 was 8.00 to 9.00 and the “MTHFD1/MTHFD2 IC50 ratio” value is “F (<3)”.
As for `COC[C@H]1CN(c2ccc3c4c(c(=O)oc3c2C)CN(C(=O)c2cc(N3CCC3)c(C(=O)NS(=O)(=O)N3CCCC3)cc2F)CC4)CCN1C` [Example 194, (R)-2-(azetidin-1-yl)-5-fluoro-4-(8-(3-(methoxymethyl)-4-methylpiperazin-1-yl)-7-methyl-5-oxo-1,3,4,5-tetrahydro-2H-chromeno[3,4-c]pyridine-3-carbonyl)-N-(pyrrolidin-1-ylsulfonyl)benzamide], in assay [1], the pIC50 was 6.00 to 7.00. In addition, in assay [2], the pIC50 is 7.00 to 8.00 and the “MTHFD1/MTHFD2 IC50 ratio” value is on record as “G (^ 3 to 9.0)”.
